Assay: physchem
Conditions: 37 °C
Description: However, there has been no report yet for an intraoral quickly disintegrating tablet containing a slightly soluble pharmaceutical agent having an improved solubility as such and for a method of manufacturing the tablet. One of the reasons therefor is that it is difficult for satisfying all of the requirements for improving the solubility of the slightly soluble pharmaceutical agent, for a quick disintegration in the mouth and for ensuring a good touch on the tongue upon disintegration. Many of the pharmaceutical ingredients acting as a cyclic GMP phosphodiesterase inhibitor are the compounds having a relatively low solubility and are within a category of the slightly soluble pharmaceutical agents.

solubility (pH 1.2, simulated gastric fluid): 130 µg/mL | solubility (pH 6.8, aqueous buffer): 6.3 µg/mL
SMILES: COc1ccc(CNc2nnc(N3CCC(O)CC3)c3ccc(C#N)cc23)cc1Cl.Cl [formula (IX), 4-(3-chloro-4-methoxybenzyl)amino-6-cyano-1-(4-hydroxypiperidino)phthalazine hydrochloride]

Reference: US6743443B1, “Tablets immediately disintegrating in the oral cavity” (Eisai Co., Ltd., priority 1998, dated 2004)
